Results published in patent US20090075925A1, “Methods and Compositions Related to APOBEC-1 Expression” (priority 2006, published 2009).
Where two headings read alike, the source gives them in different places.

Tests used:
apoB mRNA editing [1] = conditions: for apoB mRNA editing, Mean ± SEM: 6 hours; for apoB mRNA editing (increased from 66%): about 10 times the IC50 for PP1 (cantharidin 4.7 μM)
Protocol: Protein phosphatase inhibitor studies. […] The compounds' effects on apoB mRNA editing were evaluated by RT-PCR and poisoned-primer extension analysis (Sowden et al. Rna 2:274-88 (1996)). The effect of 470 nM cantharidin on ACF subcellular distribution was investigated by treating primary hepatocyte cultures for 6 hours followed by nuclear and cytoplasmic extract preparation.
It was reasoned that if phosphorylation of ACF regulated editing activity, treatment of rat primary hepatocytes with phosphatase inhibitors might stimulate apoB mRNA editing activity. […] The experiments (n=4-6) were done over a number of months and therefore represent primary hepatocytes from several rats.
Editing activity was quantified from primary hepatocytes incubated with 10-100-times the EC50 of the various […] (Calbiochem).

PP1 = conditions: cited from earlier work
PP2A = conditions: cited from earlier work
ACF [2] = system: ACF
apoB protein = assay: intracellular and secreted apoB protein in primary hepatocytes (radioimmunoassay); type: cell-based, rat
Protocol: The effect of Cantharidin on the abundance of intracellular and secreted apoB protein was also evaluated. Primary hepatocyte cultures were treated with Cantharidin at the IC50 of PP1 and 10-times higher (n=5 for each condition). Intracellular apoB protein in hepatocyte cytoplasmic extracts and apoB protein secreted into the media as VLDL was quantified as ng apoB protein per mg total protein in the Sparks' lab by radioimmunoassay using a monoclonal antibody against apoB as described previously (Chirieac et al. (2000), Au et al. (2004), Sparks, J D and Sparks, C E J Biol Chem 265:8854-62 (1990)) (FIG. 13). For these experiments, insulin was withdrawn from control and Cantharidin-treated cultures 24 hours prior to the addition of Cantharidin in order to isolate the effect of PP 1 inhibition in the absence of insulin stimulated kinase activity.
If alterations in ACF phosphorylation are consequently to ApoB metabolism, then intracellular ApoB protein abundance should be responsive to inhibition of PP1. This was evaluated in treated primary hepatocytes by quantifying ApoB protein in hepatocyte cytoplasmic extracts and secreted into the media as VLDL using ApoB radioimmunoassay and expressed as ng ApoB protein per mg total protein (FIG. 13). For these experiments insulin was withdrawn from control and cantharidin-treated cultures 24 hours prior to the addition of cantharidin in order to isolate the effect of PP I inhibition in the absence of insulin stimulated kinase activity. […] This is the same dose response that was reported for maximal phospho-ACF recovery Mehta, A. et al (2002)).

ACF [3] = assay: ACF phosphorylation in 32P-labeled rat primary hepatocytes (ACF immunoprecipitation, autoradiography); type: cell-based
Protocol: In vivo phosphorylation of ACF. In vivo ^32P labeling was performed by intraperitoneal injection of rats with 12.5 mCi of orthophosphoric acid (10 mCi/ml ^32PO4; NEN, Boston, Mass.) buffered with 50 mM HEPES, pH 7.0 and 150 mM NaCl. After 4 hours, rats were sacrificed and hepatic cytoplasmic and nuclear extracts prepared. Primary hepatocyte cultures in 60 mm dishes were incubated in phosphate-free Minimum Essential Eagle Media (Sigma) containing 0.1 nM porcine insulin for 6 hours and subsequently in fresh media containing 10 nM insulin (equivalent to that seen in post-prandial serum) or 0.45% to 0.9% ethanol (AAPER Alcohol and Chemical Co., Shelbyville, Ky.) (Van Mater et al. (1998), Yang et al. (2000)) plus 2.0 mCi orthophosphoric acid. Cultures were labeled for 4 hours prior to extract preparation.
To evaluate the effect of phosphatase inhibition on ACF phosphorylation, cultures were pre-incubated for 2 hours with 470 nM cantharadin in phosphate-free Waymouth's media and subsequently supplemented with 0.5 mCi ^32pO4 and incubated for an additional 4 hours. Cultures were harvested and subcellular extracts prepared.
Immunological techniques. […] For immunoprecipitation analyses all radiolabeled extracts were adjusted to 5 mM MgCl2 and digested with 100 units of DNase I (Promega), RNase T1 (Roche, Ind.), and RNase A (Sigma) for 1 hour on ice to remove radiolabeled nucleic acid. Where applicable, extracts were incubated overnight with ACF CT antibody at 4° C. and subsequently reacted with Protein A-agarose (Oncogene Research Products, Boston, Mass.) pre-washed with 1×TBS/10 mM NaF. The immuno-absorbed material was washed 3 times with 1×TBS/10 mM NaF, 3 times with 1×TBS/1 M NaCl (Yang et al. (1997)) and lastly 3 times with 1×TBS. Immuno-absorbed material to be treated with alkaline phosphatase was washed with 50 mM Tris, pH 8.4, 1 mM MgCl2, 0.1 mM ZnCl2, 25% glycerol and then incubated with 5 U CIAP for 1 hour at 30° C. and then washed 6 times with 1×TBS. ACF-antibody complexes were eluted with 3 M sodium thiocyanate, acetone precipitated and analyzed by 10.5% SDS-PAGE followed by autoradiography and/or western blotting with ACF NT antibody. For ACF immunoprecipitation from gradient fractions an equal volume of pooled gradient fractions from sedimentation zones of interest were reacted with sub-saturating amounts of ACF CT antibody to ensure that the recovery of phospho-ACF was not simply a reflection of ACF abundance in each zone.
To evaluate this, cytoplasmic and nuclear extracts from radiolabeled primary hepatocyte cultures were sedimented through 10%-50% glycerol gradients. […] The ACF immunoprecipitates were resolved by SDS-PAGE, transferred to nitrocellulose, autoradiographed and subjected to phosphorimager scanning to detect and quantify radiolabeled proteins prior to immunoblotting with the ACF NT antibody.

apoB mRNA editing [4] = assay: apoB mRNA editing in McArdle cells (ethanol, ACF wild type, mutants and isoforms); type: cell-based, rat; conditions: wild type McArdle cells, ethanol 4 hours
Protocol: McArdle RH7777 cells (ATCC Manassas, Va.) stably expressing HA epitope-tagged APOBEC-1 (Yang et al. J Biol Chem 272:27700-6 (1997)) were treated for 4 hours with 0.9% ethanol and fractionated into nuclear extracts (Van Mater et al. (1998)).
To calibrate the system cells were incubated in the presence of ethanol for 4 hours and the amount of edited apoB mRNA determined.
The overall expression and subcellular localization of epitope tagged ACF isoforms is established by western blotting of nuclear and cytoplasmic extracts (prepared using NE-PER system; Pierce). These biochemical studies are complemented by immunofluorescence microscopy of paraformaldehyde fixed cells reacted with epitope tag or ACF isoform-specific antibodies. In pilot experiments varying levels of HA-tagged ACF43 and ACF45 were expressed by transfecting differing amounts of cDNA into McArdle or McAPOBEC cells (FIGS. 35A & C, western blots). […] ACF expression levels, subcellular localization and editing activity are determined from replicate experiments and the relative affects of overexpressing each isoform compared in the absence (negative control) or presence of ethanol and to the response seen in wild type cells (positive control).

AC = conditions: activation of cAMP dependent kinases, cited from earlier work
[5] = 0.5 μM (IC50 of PP1), insulin withdrawn 24 hours before

O=C(O)[C@@H]1[C@H](C(=O)O)[C@H]2CC[C@@H]1O2 [Endothall]
apoB mRNA editing, Mean ± SEM (apoB mRNA editing [1]; 100 nM): 66 ± 2%
apoB mRNA editing, Mean ± SEM (apoB mRNA editing [1]; 500 nM): 65 ± 2%
apoB mRNA editing, Mean ± SEM (apoB mRNA editing [1]; 5 μM): 64 ± 3%
apoB mRNA editing, Mean ± SEM (apoB mRNA editing [1]; 50 μM): 83 ± 2%
effect on apoB mRNA editing (apoB mRNA editing [1]; 10-times the IC50 for PP1): stimulated editing to statistically significant levels

C[C@@]12C(=O)OC(=O)[C@]1(C)[C@H]1CC[C@@H]2O1 [Cantharidin]
IC50 (PP1): 473 nM
IC50 (PP1; listed as cantharidin): 470 nM
IC50 (PP2A): 40 nM
IC50 (PP2A; listed as cantharidin): 47 nM
nuclear ACF (control nuclear to cytoplasmic 1:1) (ACF [2]; 470 nM, 4 hours): five-fold increase in nuclear ACF
nuclear ACF compared to untreated control hepatocytes (ACF [2]; 0.5 μM (IC50 of PP1)): marked increase in nuclear ACF
reduction in intracellular (cell) apoB relative to untreated hepatocytes (apoB protein; [5]): 22%
reduction in secreted (media) apoB relative to untreated hepatocytes (apoB protein; [5]): 17%
reduction in secreted apoB (apoB protein; 5 μM): ≥ 30%
reduction in intracellular apoB (apoB protein; 5 μM (10-times the IC50)): ≥ 60%
apoB mRNA editing, Mean ± SEM (apoB mRNA editing [1]; 4.7 nM): 62 ± 2%
apoB mRNA editing, Mean ± SEM (apoB mRNA editing [1]; 47 nM): 64 ± 1%
apoB mRNA editing, Mean ± SEM (apoB mRNA editing [1]; 470 nM): 75 ± 1%
effect on apoB mRNA editing (apoB mRNA editing [1]; 470 nM, the IC50 for PP1): reproducible, but not statistically significant increase in editing
apoB mRNA editing, Mean ± SEM (apoB mRNA editing [1]; 4.7 μM): 91 ± 1%
apoB mRNA editing (increased from 66%) (apoB mRNA editing [1]): > 90%
effect on apoB mRNA editing (apoB mRNA editing [1]; concentration not given): stimulated apoB mRNA editing
ACF phosphorylation (ACF [3]; 470 nM): increased

CCO [ethanol]
editing in metabolic state of rat hepatocytes (model, basal ~65%) (apoB mRNA editing [1]): ~95%
increase in editing activity (apoB mRNA editing [4]): 52%
percent editing (from 21%) (apoB mRNA editing [4]): 32%
increase of phosphoACF in nuclear 27S editosomes (ACF [3]; 0.45% ethanol, 4 hours): 3.5 fold
increase of phosphoserine in immunopurified ACF (ACF [3]; 0.9% ethanol during the labeling period): 1.5 fold

CCCCCCCCCCCCCC(=O)O[C@@H]1[C@@H](C)[C@@]2(O)[C@@H](C=C(CO)C[C@]3(O)C(=O)C(C)=C[C@@H]23)[C@@H]2C(C)(C)[C@]12OC(C)=O [PMA]
apoB mRNA editing, Mean (apoB mRNA editing [1]; 500 nM): 68.8%
apoB mRNA editing, Mean (apoB mRNA editing [1]; 5 μM): 64.9%
apoB mRNA editing, Mean (apoB mRNA editing [1]; 50 μM): 63%

Glucagon
EC50 (AC): 0.1 to 100 nM
EC50 (AC; listed as glucagon): 50 nM
apoB mRNA editing, Mean (apoB mRNA editing [1]; 1 nM): 62.2%
apoB mRNA editing, Mean (apoB mRNA editing [1]; 10 nM): 59.5%
apoB mRNA editing, Mean (apoB mRNA editing [1]; 100 nM): 58.3%

C=C1[C@@H](O)[C@@H]2O[C@]3(CC[C@H](/C=C/[C@@H](C)[C@@H]4CC(C)=C[C@@]5(O[C@H](C[C@@](C)(O)C(=O)O)CC[C@H]5O)O4)O3)CC[C@H]2O[C@@H]1[C@@H](O)C[C@H](C)[C@H]1O[C@@]2(CCCCO2)CC[C@H]1C [Okadaic acid]
apoB mRNA editing, Mean ± SEM (apoB mRNA editing [1]; 1 nM): 72 ± 4%
apoB mRNA editing, Mean ± SEM (apoB mRNA editing [1]; 10 nM): 74 ± 4%
apoB mRNA editing, Mean ± SEM (apoB mRNA editing [1]; 100 nM): 91 ± 2%
apoB mRNA editing (increased from 66%) (apoB mRNA editing [1]): greater than 90%
effect on apoB mRNA editing (apoB mRNA editing [1]; concentration not given): stimulated

C=C[C@@]1(C)CC(=O)[C@]2(O)[C@@]3(C)[C@@H](O)CCC(C)(C)[C@@H]3[C@H](O)[C@H](OC(C)=O)[C@@]2(C)O1 [Forskolin]
apoB mRNA editing, Mean (apoB mRNA editing [1]; 4 μM): 70.6%
apoB mRNA editing, Mean (apoB mRNA editing [1]; 40 μM): 68.5%
apoB mRNA editing, Mean (apoB mRNA editing [1]; 120 μM): 69%
